Values after ≈ are worked out from the molar mass of the structure shown. Read-outs that look alike come from different tables or passages of the source. Peptide text beside a SMILES is read from it.
What was measured:
P. aeruginosa MDR 522/17 = assay: microbe, parasite or virus in culture; assay type: cell-based, Pseudomonas aeruginosa
Experimental: (§1) In this regard the test plates were preincubated for 1 h at 37 °C with 0.1% bovine serum albumin (BSA) in distilled water before use. Bacteria were grown overnight at 37 °C with shaking in 2.1% Müller–Hinton broth (MHB), and then a small aliquot was transferred into the fresh portion of the same medium for another 2–3 h on the day of the experiment to provide us with the log phase bacterial suspension. Concentration of bacterial cells in suspension was evaluated based on absorbance at 620 nm and diluted down to 1 × 10^6 CFU/mL with MHB. Equal volumes of the prepared bacterial suspension in MHB and two-fold serial dilutions of the antimicrobials in 10 mM sodium phosphate (Na-P) buffer (pH 7.4) with 0.1% BSA were mixed and incubated overnight at 37 °C. The lowest concentration where no bacterial growth was observed the next day under visual examination was considered the minimal inhibitory concentration. The test was repeated at least three times, and the final MIC value was established as a median result. Each experiment was conducted in triplicates. Terasaki microplates (10 µL end volume, V-shaped bottom; Sarstedt, Nümbrecht, Germany) were used.

A. baumannii 7226/16 [1] = assay: Crystal violet assay of biofilm formation; assay type: cell-based, Acinetobacter baumannii; settings: median of 3 independent experiments; for Minimal FECI, AMP + CAPB, biofilm formation: combination with cocamidopropyl betaine; for Minimal FECI, AMP + DXD, biofilm formation: combination with dioxydin; for Minimal FECI, AMP + ETA, biofilm formation: combination with etidronic acid; for Minimal FECI, AMP + PTS, biofilm formation: combination with prontosan; for MECBF partially inhibiting bacterial biofilms: minimal concentration with significant decrease vs intact control (Mann–Whitney, p < 0.05), 24 h, 37 °C, MHB
Experimental: The impact of the tested antimicrobials and their combinations on the formation of biofilms was quantitated as per the crystal violet assay protocol published by Merritt et al.. Testing was performed in 96-well immunological plates with U-shaped bottoms. Overnight cultures of tested bacteria in MHB were diluted by a factor of 50, mixed 1:1 with 50 μL of active compounds or combinations in the same growth medium adjusted to double the desired final concentration, and left to form biofilms for 24 h at 37 °C. Experimental samples were quadruplicated, and control without antimicrobials was octuplicated.
Then, the liquid content of the test plates was discarded, and the plates were gently washed in still water from residual traces of unattached planktonic bacteria. Each well was supplied with 125 μL 0.1% aqueous solution of crystal violet dye for 10 min at room temperature to stain biofilm components left attached to the surface. After staining, the plates were washed with clear water once more to remove excessive dye and left to air-dry. To quantify the amount of the bound dye corresponding to the thickness of the formed biofilm, it was redissolved in 30% acetic acid, 200 μL of which was introduced into each well. After 15 min at room temperature, the content of the wells was mixed by repetitive pipetting to ensure complete dye extraction, and 125 μL of each sample was transferred well-by-well into 96-well clear flat-bottom plates for spectrophotometric examination. OD was measured at 580 nm. Final results were calculated as medians based on three independent experiments.
The minimal concentrations of AMPs and antiseptics causing a statistically significant inhibitory effect on biofilm formation (i.e., a statistically significant decrease compared with the control biofilm formed by the intact bacteria; Mann–Whitney U-test, p < 0.05) are shown in Table 3 and are later referenced as MECBF (for minimal effective concentration regarding biofilm formation). The exact value of such a minimal effect is admittedly small, within the range of a 10–20% decrease in the density of the emerging biofilm. Thus, the practical usefulness of such an effect, even if strengthened in combinations, is quite questionable; however, from the academic point of view, even slight changes can provide us with information on the mode of interaction between AMPs and antiseptics and allow us to make certain assumptions about the nature of such interactions.
Analyzing the combined action of AMPs and antiseptics (AS) in sub-microbicidal concentrations toward biofilms, we adopted the same approach based on the calculation of fractional indices as the one we used while testing antimicrobial activity on planktonic bacteria. For combinations, the series of concentrations from [MECBF(AMP) + MECBF(AS)], [½MECBF(AMP) + ½MECBF(AS)] and down to [1/32 × MECBF(AMP) + 1/32 × MECBF(AS)] was analyzed. […] The fractional indices, denoted here as fractional effective concentration indices (FECIs), were calculated as follows: FECI = [AMP]/MECBF(AMP) + [AS]/MECBF(AS), where [AMP] and [AS] are the concentration of AMP and antiseptic in a combination that has a statistically significant inhibitory effect on the formation of biofilms if compared with the intact control (Mann–Whitney U-test, p < 0.05). The minimal FECI > 4 was interpreted as antagonism, FECI ≤ 0.5 as synergy, 0.5 < FECI ≤ 1 as additivity, and 1 < FECI ≤ 4 as independent action.

A. baumannii 7226/16 [2] = assay: microbe, parasite or virus in culture; assay type: cell-based, Acinetobacter baumannii
Experimental: as §1

S. aureus 1399/17 = assay: microbe, parasite or virus in culture; assay type: cell-based, Staphylococcus aureus
Experimental: as §1

E. coli ML-35p [3] = assay: Fluorometric resazurin assay of bacterial metabolic activity; assay type: cell-based, Escherichia coli; settings: ¼ MIC AMP + ¼ MIC poviargolum; became comparable to ½ MIC of the peptide
Experimental: The decline in metabolic activity of bacterial cells faced against test substances or their combinations was tracked using resazurin dye, also known as alamarBlue. […] Thus, resazurin-to-resorufin conversion was primarily associated with energy metabolism impairment.
The experimental procedure was basically the same as for permeability testing except for the substitution of the markers by 120 μM resazurin and the addition of 0.1% MHB to provide bacteria with a metabolic substrate. An additional control without both antimicrobials and bacterial cells was included to imitate the zero metabolic activity level. Though resazurin-to-resorufin transformation can be observed via either spectrometry or fluorimetry, the latter was preferred as a more sensitive method. Experiments were conducted in 96-well white opaque plates. Temperature and shaking parameters were left unchanged. Fluorescence intensity was measured at 590 nm with excitation at 560 nm. Data were collected every 3 min for 4–6 h using a Gemini EM plate spectrofluorimeter (Molecular Devices, San Jose, CA, USA).

E. coli ESBL 521/17 = assay: microbe, parasite or virus in culture; assay type: cell-based, Escherichia coli
Experimental: as §1

E. coli ML-35p [4] = assay: Broth microdilution assay (MIC, planktonic bacteria); assay type: cell-based, Escherichia coli; settings: antiseptics and surfactants, MHB, overnight 37 °C, median of 3–4 independent experiments, prontosan as polyhexanide
Experimental: as §1

[5] = sub-microbicidal concentrations
[6] = antiseptics and surfactants, MHB, overnight 37 °C, median of 3–4 independent experiments, prontosan as polyhexanide

Row | Compound | MIC (P. aeruginosa MDR 522/17; MDR 522/17, 1 h) [µM] | Minimal FECI, AMP + CAPB, biofilm formation (A. baumannii 7226/16 [1]; [5]) | Minimal FECI, AMP + DXD, biofilm formation (A. baumannii 7226/16 [1]; [5]) | Minimal FECI, AMP + ETA, biofilm formation (A. baumannii 7226/16 [1]; [5]) | Minimal FECI, AMP + PTS, biofilm formation (A. baumannii 7226/16 [1]; [5]) | MECBF partially inhibiting bacterial biofilms (A. baumannii 7226/16 [1]) | MIC (A. baumannii 7226/16 [2]; 7226/16, 1 h) [µM] | MIC (S. aureus 1399/17; 1399/17, 1 h) [µM] | Effect of poviargolum on development of the AMP's suppression of bacterial metabolic activity (E. coli ML-35p [3]) | MIC (E. coli ESBL 521/17; ESBL 521/17, 1 h) [µM] | MIC (P. aeruginosa MDR 522/17; [6]) | MIC (A. baumannii 7226/16 [2]; [6]) [mg/mL] | MIC (S. aureus 1399/17; [6]) | MIC (E. coli ESBL 521/17; [6]) | also measured
1 | CC[C@H](C)[C@H](NC(=O)[C@H](CCCNC(=N)N)NC(=O)[C@@H](NC(=O)[C@@H]1CCCN1C(=O)[C@@H]1CCCN1C(=O)[C@H](CCCNC(=N)N)NC(=O)[C@H](CCCNC(=N)N)NC(=O)[C@H](Cc1ccccc1)NC(=O)[C@@H]1CCCN1C(=O)[C@H](CC(C)C)NC(=O)[C@H](CCCNC(=N)N)NC(=O)[C@H](Cc1ccccc1)NC(=O)[C@@H](N)CCCNC(=N)N)[C@@H](C)CC)C(=O)N[C@@H](Cc1c[nH]cn1)C(=O)N1CCC[C@H]1C(=O)N1CCC[C@H]1C(=O)N1CCC[C@H]1C(=O)N[C@@H](Cc1ccccc1)C(=O)N[C@@H](Cc1ccc(O)cc1)C(=O)N1CCC[C@H]1C(=O)N1CCC[C@H]1C(=O)N[C@@H](Cc1ccccc1)C(=O)N[C@@H](CCCNC(=N)N)C(=O)N[C@@H](CCCNC(=N)N)C(=O)N[C@@H](Cc1ccccc1)C(=O)N[C@@H](CC(C)C)C(=O)O [ChBac3.4] (H-RFRLPFRRPPIRIHPPPFYPPFRRFL-OH; N-terminus assumed) | 6.2 | 0.5 | 1 | 1.12 | 0.5 | 1/16 | 6.2 | 3.1 | significantly accelerated | 3.1 | – | – | – | – | Minimal FECI, AMP + PVG, biofilm formation (A. baumannii 7226/16 [1]; combination with poviargolum, sub-microbicidal concentrations): 1
2 | [O-][n+]1c(CO)c(CO)[n+]([O-])c2ccccc21 [Dioxydin] | – | – | – | – | – | 1/16 | – | – | – | – | 125 µg/mL | 0.0312 | 500 µg/mL | 15.6 µg/mL | –
3 | CC(O)(P(=O)(O)O)P(=O)(O)O [Etidronic acid] | – | – | – | – | – | 1/128 | – | – | – | – | – | – | – | – | MIC (P. aeruginosa MDR 522/17; Pseudomonas aeruginosa, MDR522/17, antiseptics and surfactants, MHB, overnight 37 °C, median of 3–4 independent experiments, prontosan as polyhexanide, read-out: MIC): 25000 µg/mL; MIC (A. baumannii 7226/16 [2]; Acinetobacter baumannii, 7226/16, antiseptics and surfactants, MHB, overnight 37 °C, median of 3–4 independent experiments, prontosan as polyhexanide, read-out: MIC): 12.5 mg/mL; MIC (S. aureus 1399/17; Staphylococcus aureus, 1399/17, antiseptics and surfactants, MHB, overnight 37 °C, median of 3–4 independent experiments, prontosan as polyhexanide, read-out: MIC): 50000 µg/mL; MIC (E. coli ML-35p [4]; Escherichia coli, ML35P, read-out: MIC): 50 mg/mL (≈ 243 mM); MIC (E. coli ESBL 521/17; Escherichia coli, ESBL521/17, antiseptics and surfactants, MHB, overnight 37 °C, median of 3–4 independent experiments, prontosan as polyhexanide, read-out: MIC): 50000 µg/mL
4 | CC(C)C[C@H](NC(=O)[C@H](CCCNC(=N)N)NC(=O)CNC(=O)CNC(=O)[C@@H](N)CCCNC(=N)N)C(=O)N[C@H]1CSSC[C@@H](C(=O)N[C@H](C(=O)NCC(=O)N[C@@H](CCCNC(=N)N)C(N)=O)C(C)C)NC(=O)[C@H](C(C)C)NC(=O)[C@@H]2CSSC[C@H](NC(=O)[C@H](Cc3ccc(O)cc3)NC1=O)C(=O)N[C@@H](CCCNC(=N)N)C(=O)N[C@@H](CCCNC(=N)N)C(=O)N[C@@H](CCCNC(=N)N)C(=O)N[C@@H](Cc1ccccc1)C(=O)N2 [PG-1, protegrin 1] | 6.2 | 0.5 | 1.12 | 1.12 | 0.25 | 1/32 | 6.2 | 0.4 | significantly accelerated | 0.4 | – | – | – | – | –
5 | Cocamidopropyl betaine | – | – | – | – | – | 1/32 | – | – | – | – | >50,000 µg/mL | 0.0781 | >50,000 µg/mL | >50,000 µg/mL | MIC (E. coli ML-35p [4]): >50,000 µg/mL

Reference: PMC9863607, “Combined Use of Antimicrobial Peptides with Antiseptics against Multidrug-Resistant Bacteria: Pros and Cons” (Pharmaceutics, 2023)
